Measured values from patent US20200062696A1, “COMPOSITIONS AND METHODS FOR INHIBITING RETICULON 4” (THE REGENTS OF THE UNIVERSITY OF CALIFORNIA, priority 2017, published 2020).

Tests used:
[1] = tested on: SW620 cells expressing GFP-tagged Sec61β; test: ER morphology by fluorescence microscopy in SW620 cells expressing GFP-Sec61β; type: cell-based; conditions: DKM 3-30 50 μM
Procedure: FIG. 8. ER Morphology in SW620 Colorectal Cancer Cells. SW620 cells expressing GFP-tagged Sec61β were treated with DKM 3-30 (50 μM) for the indicated times and the ER (light gray/white) and nuclear (dark gray) morphology visualized by fluorescence microscopy.
(§1) Fluorescence microscopy. SW620 and U2OS cells were transiently transfected with a plasmid encoding GFP-tagged Sec61β using fuGENE6 (Roche) according to the manufacturer's instructions. Transfected cells plated on poly-L-lysine treated coverslips were treated, washed in PBS, and fixed by incubation in 4% paraformaldehyde in PBS for 10 min. Fixed cells were washed extensively in PBS and nuclei stained by addition of 4′,6-diamidino-2-phenylindole (DAPI) (Thermo Fisher Scientific) for 10 min. Coverslips were mounted using Fluoromount-G (SouthernBiotech) and visualized using a DeltaVision Elite microscope outfitted with a 60× oil immersion objective. Acquired stacks of images of fixed cells were deconvolved and analyzed using SoftWoRx and ImageJ. For time-lapse imaging of live cells, transfected cells were plated on poly-L-lysine treated glass-bottom 4-well imaging chambers (Lab-Tek II; Thermo Fisher Scientific). Imaging was performed using a DeltaVision Elite microscope encased in a chamber that was maintained at 37° C. and was continuously perfused with humidified 5% CO2. Acquired images were analyzed using SoftWoRx and ImageJ.

SW620 tumor xenograft = SW620 tumor xenograft growth in immune-deficient SCID mice; type: in vivo; conditions: 50 mg/kg ip once per day, started ten days after subcutaneous injection of SW620 cells
Procedure: Tumor Xenograft Growth Studies. C.B17 SCID male mice (6-8 weeks old) were injected subcutaneously into the flank with 2,000,000 cells in serum-free media. For pharmacological treatments, mice were exposed by intraperitoneal (ip) injection with either vehicle (18:1:1 PBS/ethanol/PEG40) or 50 mg/kg DKM 3-30 once per day starting ten days after the initiation of the xenograft experiment and until the completion of the study. Tumors were measured every 7 days by caliper measurements. Animal experiments were conducted in accordance with the guidelines of the Institutional Animal Care and Use Committee of the University of California, Berkeley.

[2] = tested on: U2OS cells expressing GFP-tagged Sec61β; test: Time-lapse imaging of mitosis and nuclear envelope in U2OS cells expressing GFP-Sec61β; type: cell-based; conditions: DKM 3-30 50 μM
Procedure: FIGS. 4A-4C. DKM 3-30 disrupts nuclear envelope morphology during mitosis. (FIGS. 4A-4C) U2OS cells expressing GFP-tagged Sec61β were treated with vehicle (DMSO) or DKM 3-30 (50 μM) and the ER morphology of mitotic cells visualized by time-lapse fluorescence microscopy. Time (min) is indicated on each panel. Panels (FIGS. 4A, 4B) provide examples of mitotic cells. Enlarged images following mitosis show the nuclear envelope. White arrowheads indicate a GFP-Sec61β structure bisecting the nucleus of a cell incubated with DKM 3-30. […] Bottom panels indicate boxed region.
as §1, with “For time-lapse imaging of live cells, transfected cells were plated on poly-L-lysine treated glass-bottom 4-well imaging chambers (Lab-Tek II; Thermo Fisher Scientific). Imaging was performed using a DeltaVision Elite microscope encased in a chamber that was maintained at 37° C. and was continuously perfused with humidified 5% CO2.” left out

[3] = tested on: MEF cells expressing human RTN4-GFP; test: Apoptosis (propidium iodine and Annexin-V, flow cytometry) in MEF cells expressing human RTN4-GFP; type: cell-based, mouse; conditions: DKM 3-30 50 μM, 0, 8 or 16 h
Procedure: FIG. 12. Effect of DKM 3-30 in Mouse Embryonic Fibroblast (MEF) cells expressing human RTN4. C1101 in human RTN4 is instead a serine in mouse RTN4. […] GFP or RTN4-GFP expressing MEF cells were treated with DKM 3-30 (50 μM) for 0, 8, or 16 h and apoptotic cells (propidium iodine positive and Annexin-V positive) were assessed by flow cytometry. Data are presented as mean±sem. Significance is expressed as *p<0.05 compared to 0 h time-point.

[4] = tested on: SW620 colorectal cancer cells; test: Serum-free cell survival of SW620 cells (Hoescht staining); type: cell-based; conditions: 48 h, vs DMSO, average of n = 3/group
Procedure: Cell Culture. SW620 cells were purchased from ATCC. SW620 cells were grown in L-15 media with 10% fetal bovine serum (FBS) in ambient CO2. U2OS cells were grown in DMEM media supplemented with 10% FBS at 37° C. with 5% CO2.
Survival and Proliferation Assays. Cells were plated the evening before the experiment, and allowed to adhere overnight. For serum-free cell survival assays, cells were plated in media not containing FBS. For cell proliferation assays, cells were plated in regular media. For the chemical genetics screen, cells were treated with either DMSO or the cysteine-reactive fragment for 48 h and cell viability was assessed by Hoescht stain using our previously described methods

C=CC(=O)Nc1ccc(Oc2ccc(Cl)cc2)cc1 [DKM 3-30, N-(4-(4-chlorophenoxy)phenyl)acrylamide]
ER morphology in SW620 cells [1]: suggest alterations in the ER morphology
tumor xenograft growth (SW620 tumor xenograft): initial regression and a sustained impairment in tumor growth
nuclear envelope morphology following mitosis [2]: aberrant nuclei that were bisected by GFP-Sec61β positive structures
duration of mitosis ([2]; control cells ~50-60 min): 3 to 4 h
apoptosis in MEF cells expressing human RTN4-GFP [3]: induces apoptosis
viability at 50 µM ([4]; Homo sapiens, SW-620, cysteine-reactive fragment 50 μM, read-out: SW620 survival Ave): 31%
SW620 survival Ave ([4]; cysteine-reactive fragment 50 μM): significantly impaired
